Assay results: BindingDB's records for patent US12310975 (Arvinas Operations, 2025)

molecular target: B-cell lymphoma 6 protein (Homo sapiens, UniProt P41182); experiment: BCL6 TR-FRET Protocol
Method: Assay buffer A: 50 mM HEPES pH 7.5, 125 mM NaCl, 0.01% TritonX.Assay buffer B (made fresh): buffer A+1 mM Glutathione (or 0.5 mM DTT).Assay buffer C (made fresh): buffer B+0.03% BSA.Black Proxy plates, 96 well.15 μl final reaction volumes (BCoR-Cy5 100 nM, SA-Eu 2 nM, BCL6-avitag 2 nM).134 μM BCL6-Avitag-Biotin stock: made fresh by adding 2 μl of BCL6-Avitag-Biotin to 31.5 ml Buffer C.1 mM BCoR-Cy5 peptide (LifeTein) stock in Dimethylformamide (DMF).300 nM BCoR-Cy5 working stock: made fresh by adding 4.5 μl of the 1 mM BCoR-Cy5 peptide stock to 15 ml Buffer B.10 μM Eu-Streptavidin (Lance Eu-W1024 Streptavidin, PerkinElmer) stock solution.6 nM Eu-Streptavidin working stock: made fresh by adding 9 μl Eu-Streptavidin stock solution to 15 ml Buffer A.Compounds were diluted to 10 mM. Twenty microliters of DMSO was aliquoted to each well of the microtiter plates. From the 10 mM compound stock, 8.7 ul was aliquoted to the 20 ul DMSO and 3-fold serial dilutions (12 pt […] tritration plate, 96 well, 100% DMSO) performed. Five ul from the titration plate wells was aliquoted to 45 ul Buff C (Intermediate dilution plates, 10% DMSO).Spot 1.5 μl compound titrations to 384-well plates in duplicate, and spot 3.5 μl [8.5 nM] BCL6-bio protein to each well. The plate was mix briefly, centrifuged, and incubated for 30 minutes at room temperature.Mix 14 mls of BCoR-Cy5 [300 nM] and 14 mls [6 nM] Eu-Streptavidin. Spot 10 μl BCoR-Cy5/SA-Eu (1:1) mix to each well. The plates were incubated for 2 hours and then read on an Envision plate reader.

SMILES	IC50 [nM]
Cn1c(=O)c(OC2COC2)cc2cc(Nc3nc(N4CCC(CN5CCN(c6ccc7c(c6)C(=O)N(C6CCC(=O)NC6=O)C7=O)CC5)CC4)ncc3Cl)ccc21 (configuration not stated) [US12310975, Example 223]	> 100
CNC(=O)COc1cc2cc(Nc3cc(N4CCN(C(C)(C)C5CCN(c6ccc7c(c6)C(=O)N(C6CCC(=O)NC6=O)C7=O)CC5)CC4)ncc3Cl)ccc2n(C)c1=O (configuration not stated) [US12310975, Example 261]	> 100
CNC(=O)COc1cc2cc(Nc3nc(N4CC5(CCN(CC6CCN(c7cccc8c7C(=O)N(C7CCC(=O)NC7=O)C8=O)CC6)CC5)C4)ncc3Cl)ccc2n(C(C)C)c1=O (configuration not stated) [US12310975, Example 426]	< 10
CNC(=O)COc1cc2cc(Nc3nc(N4CCC(OC5CC6(CCN(c7cccc(C(=O)NC8CCC(=O)NC8=O)c7F)CC6)C5)CC4)ncc3Cl)ccc2n(C(C)C)c1=O (configuration not stated) [US12310975, Example 433]	> 100
CNC(=O)COc1cc2cc(Nc3nc(N4CCC(OC5CC6(CCN(c7cccc(C(=O)NC8CCC(=O)NC8=O)c7OC)CC6)C5)CC4)ncc3Cl)ccc2n(C(C)C)c1=O (configuration not stated) [US12310975, Example 449]	> 100
CNC(=O)COc1cc2cc(Nc3nc(N4CCN(C(C)(C)C5CCN(c6ccc(OC)c(C(=O)NC7CCC(=O)NC7=O)c6F)CC5)CC4)ncc3Cl)ccc2n(C)c1=O (configuration not stated) [US12310975, Example 468]	< 10
CNC(=O)COc1cc2cc(Nc3nc(N4CCC(C5(N6CCC(c7ccc8c(c7)C(=O)N(C7CCC(=O)NC7=O)C8=O)CC6)CC5)CC4)ncc3Cl)ccc2n(C)c1=O (configuration not stated) [US12310975, Example 482]	< 10
CNC(=O)COc1cc2cc(Nc3nc(N4CCC(CN5CCCN(c6cccc(N7CCC(=O)NC7=O)c6)CC5)CC4)ncc3Cl)ccc2n(C(C)C)c1=O [US12310975, Example 498]	> 100

Other lines, results leading:

IC50 [nM]	SMILES
< 10	CNC(=O)COc1cc2cc(Nc3cc(N4CCN(CC5CCN(c6ccc7c(c6)C(=O)N(C6CCC(=O)NC6=O)C7=O)CC5)CC4)ncc3Cl)ccc2n(C)c1=O (configuration not stated) [US12310975, Example 253]
< 10	CCC(C1CCN(c2ccc3c(c2)C(=O)N(C2CCC(=O)NC2=O)C3=O)CC1)N1CCN(c2ncc(Cl)c(Nc3ccc4c(c3)cc(OCC(=O)NC)c(=O)n4C)n2)CC1 (configuration not stated) [US12310975, Example 337]
< 10	CNC(=O)COc1cc2cc(Nc3nc(N4CCN(CC5CCN(c6cc(OC)cc7c6C(=O)N(C6CCC(=O)NC6=O)C7=O)CC5)CC4)ncc3Cl)ccc2n(C(C)C)c1=O (configuration not stated) [US12310975, Example 414]
< 10	CNC(=O)COc1cc2cc(Nc3nc(N4CCC(CN5CCC6(CC5)CN(c5cccc(C(=O)NC7CCC(=O)NC7=O)c5F)C6)CC4)ncc3Cl)ccc2n(C(C)C)c1=O (configuration not stated) [US12310975, Example 419]
